This passage reports IC50 results from US20160193216A1 (Nimbus Iris, Inc., priority 2012, published 2016).

Molecules are shown by their SMILES. Counter-ions that a name gives are not always drawn. Like-named read-outs stand apart in the source and are kept apart here.

One experiment has as its system THP-1 cells. As to the kind of experiment: LPS induced cytokine (TNFα and IL8) production assay in THP-1 cells. Format: cell-based. The conditions noted are these: Homo sapiens, 300 ng/mL LPS. The method, then: Cytokine Production Assay
Provided compounds were also assayed in an LPS (Lipopolysacharide) or R848 (TLR-7 agonist) induced cytokine (TNFα and IL8) production assay in THP-1 cells, human peripheral blood mononuclear cells (hPBMC), and whole blood. The exemplary protocol for this assay in THP-1 cells was as follows below.
THP-1 cells from ATCC (TIB-202) were cultured in RPMI Medium 1640 (Invitrogen, Cat No. A10491-01), 10% fetal bovine serum (Invitrogen, Cat No. 10099141, Lot No. 8172882) containing 100 U/mL Penicillin, 100 μg/mL streptomycin (Invitrogen, Cat No. 15140-122), and 50 uM 2-Mercaptoethanol (Invitrogen, Cat No. 21985023). LPS-EK ultra pure (Invivogen, Cat No. tlrl-peklps) was used to induce IL8 and TNFα production, that was detected in the cell culture supernatant by IL8 HTRF kit (Cisbio, Cat No. 62IL8PEB) and TNFα HTRF kit (Cisbio, Cat No. 62TNFPEB), as per manufacturer instructions. Cells were cultured in 96 well assay plates at 100,000 cells per well, and compounds diluted in final 0.3% DMSO were pre-incubated with cells for 1 hour prior to stimulation with 300 ng/mL LPS. Cytokine production in cell supernatant was measured at 5 hours for TNFα and IL8 production, and for 16 hours for IL8 production and assessment of cell viability.
The compound numbers correspond to the compound numbers in Table 1. […] “NA” stands for “not assayed.”

The next experiment has as its target T1, IRAK4 (Homo sapiens, UniProt Q9NWZ3).
T1 sequence (Q9NWZ3 1-460): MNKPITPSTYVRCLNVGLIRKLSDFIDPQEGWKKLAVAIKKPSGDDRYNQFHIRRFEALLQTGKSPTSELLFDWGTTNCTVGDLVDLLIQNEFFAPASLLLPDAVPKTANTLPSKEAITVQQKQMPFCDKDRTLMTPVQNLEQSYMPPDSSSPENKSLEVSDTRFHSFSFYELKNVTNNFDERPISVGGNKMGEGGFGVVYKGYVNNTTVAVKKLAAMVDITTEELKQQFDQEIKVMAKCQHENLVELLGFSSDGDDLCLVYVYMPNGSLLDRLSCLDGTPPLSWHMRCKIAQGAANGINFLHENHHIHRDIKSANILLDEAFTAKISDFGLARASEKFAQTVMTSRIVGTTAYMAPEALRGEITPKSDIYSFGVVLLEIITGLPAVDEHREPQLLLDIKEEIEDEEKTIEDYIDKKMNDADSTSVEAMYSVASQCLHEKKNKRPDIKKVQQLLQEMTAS
As to the kind of experiment: IRAK-4 activity inhibition assay (Caliper). Format: biochemical. The conditions noted are these: 37 μM ATP, 3.5 nM IRAK4.

Take `CN(C)[C@H]1CC[C@H](Oc2ncnc3sc4c(c23)[C@@H](CC(N)=O)CC4)CC1` [Compound I-43, 2-[(3R)-12-[[4-(dimethylamino)cyclohexyl]oxy]-7-thia-9,11-diazatricyclo[6.4.0.0[2,6]]dodeca-1(8),2(6),9,11-tetraen-3-yl]acetamide]: the IC50 is 0.5 to 1 µM in the experiment on THP-1 cells (read-out: IL8 production IC50), 0.5 to 1 µM in the experiment on THP-1 cells (read-out: TNFα production IC50) and below 5 µM on IRAK4.

As to `CCN[C@H]1CC[C@H](Oc2ncnc3sc4c(c23)[C@@H](C[C@H](O)C(N)=O)CC4)CC1` [Compound I-136, (2S)-3-[(3R)-12-[[4-(ethylamino)cyclohexyl]oxy]-7-thia-9,11-diazatricyclo[6.4.0.0[2,6]]dodeca-1(8),2(6),9,11-tetraen-3-yl]-2-hydroxypropanamide], the IC50 with THP-1 cells (read-out: IL8 production IC50) is at most 0.5 µM; with THP-1 cells (read-out: TNFα production IC50) it was 0.5 to 1 µM; on IRAK4, below 5 µM.

Turning to `NC(=O)C(F)(F)C[C@H]1CCc2sc3ncnc(O[C@H]4CC[C@H](N5CCOCC5)CC4)c3c21` [Compound I-142, 2,2-difluoro-3-((R)-4-(((1r,4R)-4-morpholinocyclohexyl)oxy)-6,7-dihydro-5H-cyclopenta[4,5]thieno[2,3-d]pyrimidin-5-yl)propanamide], the IC50 in the experiment on THP-1 cells (read-out: IL8 production IC50) is at most 0.5 µM; with THP-1 cells (read-out: TNFα production IC50), at most 0.5 µM; against IRAK4, below 5 µM.

Turning to `CN(C)[C@H]1CC[C@H](Nc2ncnc3sc4c(c23)CC(C)(C)OC4)CC1` [Compound I-194, 4-N-[12, 12-dimethyl-11-oxa-8-thia-4,6-diazatricyclo[7.4.0.0[2,7]]trideca-1(9),2(7),3,5-tetraen-3-yl]-1-N, 1-N-dimethylcyclohexane-1,4-diamine], the IC50 was 1 to 5 µM in the experiment with THP-1 cells (read-out: IL8 production IC50), at least 5 µM in the experiment with THP-1 cells (read-out: TNFα production IC50) and below 5 µM at IRAK4.

Take `CN(C)[C@H]1CC[C@H](Oc2ncnc3sc4c(c23)CN(S(C)(=O)=O)CC4)CC1` [Compound I-168, 4-([12-methanesulfonyl-8-thia-4,6,12-triazatricyclo[7.4.0.0-[2,7]]trideca-1(9),2(7),3,5-tetraen-3-yl]oxy)-N,N-dimethylcyclohexan-1-amine]: the IC50 with THP-1 cells (read-out: IL8 production IC50) is at least 5 µM; in the experiment on THP-1 cells (read-out: TNFα production IC50), at least 5 µM; against IRAK4 it was below 5 µM.

For the compound `CN(CC(=O)N1CCCC1)[C@H]1CC[C@H](Oc2ncnc3sc4c(c23)[C@@H](C[C@H](O)C(N)=O)CC4)CC1` [Compound I-149, (2S)-2-hydroxy-3-[(3R)-12-[(4-[methyl[2-oxo-2-(pyrrolidin-1-yl)ethyl]amino]cyclohexyl)oxy]-7-thia-9,11-diazatricyclo[6.4.0.0̂[2,6]]dodeca-1(8),2(6),9,11-tetraen-3-yl]propanamide], the IC50 in the experiment with THP-1 cells (read-out: IL8 production IC50) is 1 to 5 µM; in the experiment on THP-1 cells (read-out: TNFα production IC50), 1 to 5 µM; at IRAK4 it was below 5 µM.

With `CN(C)[C@H]1CC[C@H](Nc2ncnc3sc4c(c23)C[C@@H](C(N)=O)CC4)CC1` [Compound I-230, (12S)-3-[[4-(dimethylamino)cyclohexyl]amino]-8-thia-4,6-diazatricyclo[7.4.0.0[2,7]]trideca-1(9),2(7),3,5-tetraene-12-carboxamide], the IC50 in the experiment on THP-1 cells (read-out: IL8 production IC50) was at least 5 µM; with THP-1 cells (read-out: TNFα production IC50), at least 5 µM; against IRAK4, below 5 µM.

In the case of `C[C@H](O)C[C@H]1CCc2sc3ncnc(O[C@H]4CC[C@H](N(C)C)CC4)c3c21` [Compound I-40, (2S)-1-[(3R)-12-[[4-(dimethylamino)cyclohexyl]oxy]-7-thia-9,11-diazatricyclo[6.4.0.0[2,61]]dodeca-1(8),2(6),9,11-tetraen-3-yl]propan-2-ol], the figures for the IC50 with THP-1 cells (read-out: IL8 production IC50), with THP-1 cells (read-out: TNFα production IC50) and against IRAK4 were 1 to 5 µM, 1 to 5 µM and below 5 µM, respectively.

As to `NC(=O)[C@@H](O)C[C@H]1CCc2sc3ncnc(N[C@H]4CC[C@H](N5CCOCC5)CC4)c3c21` [Compound I-120, (S)-2-hydroxy-3-((R)-4-(((1r,4R)-4-morpholinocyclohexyl)amino)-6,7-dihydro-5H-cycyclopenta[4,5]thieno[2,3-d]pyrimidin-5-yl)propanamide], the results for the IC50 in the experiment on THP-1 cells (read-out: IL8 production IC50), in the experiment with THP-1 cells (read-out: TNFα production IC50) and on IRAK4 were at most 0.5 µM, at most 0.5 µM and below 5 µM, respectively.

Turning to `CN(C)[C@H]1CC[C@H](Oc2ncnc3sc4c(c23)C[C@H](CCO)CC4)CC1` [Compound I-110, 2-[(12R)-3-[[4-(dimethylamino)cyclohexyl]oxy]-8-thia-4,6-diazatricyclo[7.4.0.0[2,7]]trideca-1(9),2(7),3,5-tetraen-12-yl]ethan-1-ol formate], the IC50 in the experiment with THP-1 cells (read-out: IL8 production IC50) is at most 0.5 µM; with THP-1 cells (read-out: TNFα production IC50), 0.5 to 1 µM; against IRAK4 it was below 5 µM.

For `CC[C@@H](O)C[C@H]1CCc2sc3ncnc(O[C@H]4CC[C@H](N5CCOCC5)CC4)c3c21` [Compound I-65, (R)-1-((R)-4-(((1r,4R)-4-morpholinocyclohexyl)oxy)-6,7-dihydro-5H-cyclopent[4,5]thieno[2,3-d]pyrimidin-5-yl)butan-2-ol], the results for the IC50 in the experiment with THP-1 cells (read-out: IL8 production IC50), in the experiment on THP-1 cells (read-out: TNFα production IC50) and on IRAK4 were 1 to 5 µM, 0.5 to 1 µM and below 5 µM, respectively.

As for `NC(=O)C[C@H]1CCc2sc3ncnc(O[C@H]4CC[C@H](N5CCC(F)(F)CC5)CC4)c3c21` [Compound I-229, 2-[(3R)-12-[[4-(4,4-difluoropiperidin-1-yl)cyclohexyl]oxy]-7-thia-9,11-diazatricyclo[6.4.0.0[2,6]]dodeca-1(8),2(6),9, 11-tetraen-3-yl]acetamide], the IC50 in the experiment with THP-1 cells (read-out: IL8 production IC50) was 0.5 to 1 µM; with THP-1 cells (read-out: TNFα production IC50), at most 0.5 µM; at IRAK4 it was below 5 µM.

Regarding `CO[C@H](C[C@H]1CCc2sc3ncnc(O[C@H]4CC[C@H](N(C)C)CC4)c3c21)C(N)=O` [Compound I-77, (2R)-3-[(3R)-12-[[4-(dimethylamino)cyclohexyl]oxy]-7-thia-9,11-diazatricyclo[6.4.0.0[2,6]]dodeca-1(8),2(6),9,11-tetraen-3-yl]-2-methoxypropanamide], the figures for the IC50 in the experiment on THP-1 cells (read-out: IL8 production IC50), in the experiment on THP-1 cells (read-out: TNFα production IC50) and against IRAK4 were 0.5 to 1 µM, 1 to 5 µM and below 5 µM, respectively.

As for `CN(C)[C@H]1CC[C@H](Oc2ncnc3sc4c(c23)[C@@H](CCC#N)CC4)CC1` [Compound I-42, 3-[(3S)-12-[[4-(dimethylamino)cyclohexyl]oxy]-7-thia-9,11-diazatricyclo 1[6.4.0.0[2,6]]dodeca-1(8),2(6),9,11-tetraen-3-yl]propanenitrile], the IC50 with THP-1 cells (read-out: IL8 production IC50) is at most 0.5 µM; in the experiment with THP-1 cells (read-out: TNFα production IC50), at most 0.5 µM; at IRAK4, below 5 µM.

Regarding `CN(C)[C@H]1CC[C@H](Oc2ncnc3sc4c(c23)[C@@H](CC(C#N)C(N)=O)CC4)CC1` (mixture of isomers) [Compound I-51, 2-cyano-3-(12-[[4-(dimethylamino)cyclohexyl]oxy]-7-thia-9,11-diazatricyclo[6.4.0.0[2,6]]dodeca-1(12),2(6),8,10-tetraen-3-yl)propanamide], the IC50 was 0.5 to 1 µM in the experiment on THP-1 cells (read-out: IL8 production IC50), 0.5 to 1 µM in the experiment on THP-1 cells (read-out: TNFα production IC50) and below 5 µM on IRAK4.

Consider `CN(C)[C@H]1CC[C@H](Oc2ncnc3sc4c(c23)[C@@H](CCC(N)=O)CC4)CC1` [Compound I-44, 3-[(3S)-12-[[4-(dimethylamino)cyclohexyl]oxy]-7-thia-9,11-diazatricyclo[6.4.0.0[2,6]]dodeca-1(8),2(6),9,11-tetraen-3-yl]propanamide], for which the IC50 in the experiment with THP-1 cells (read-out: IL8 production IC50) is 1 to 5 µM; in the experiment with THP-1 cells (read-out: TNFα production IC50), 0.5 to 1 µM; at IRAK4, below 5 µM.

The IC50 is the concentration that inhibits the measured activity by half.
